#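 Test compounds were applied to cells in 96-well plates for 48 hours at 5 doses. GI50 marks 50% less growth. TGI is the concentration that stops growth completely.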
# Tests used:
# Assay in all cases: inhibition of tumour cell growth, NCI panel, 48 h
# OVCAR-3 ovarian = tested on: OVCAR-3 ovarian
# ACHN renal = tested on: ACHN renal
# SF-539 CNS = tested on: SF-539 CNS
# SK-MEL-28 melanoma = tested on: SK-MEL-28 melanoma
# HCT-116 colon = tested on: HCT-116 colon
# SN12C renal = tested on: SN12C renal
# SF-268 CNS = tested on: SF-268 CNS
# K-562 leukemia = tested on: K-562 leukemia
# SK-OV-3 ovarian = tested on: SK-OV-3 ovarian
# MCF7 breast = tested on: MCF7 breast
Structure (SMILES),TGI (OVCAR-3 ovarian),TGI (ACHN renal),TGI (SF-539 CNS),TGI (SK-MEL-28 melanoma),TGI (HCT-116 colon),TGI (SN12C renal),TGI (SF-268 CNS),TGI (K-562 leukemia),TGI (SK-OV-3 ovarian),GI50 (SK-OV-3 ovarian),GI50 (MCF7 breast),TGI (MCF7 breast),GI50 (ACHN renal),GI50 (SK-MEL-28 melanoma),GI50 (HCT-116 colon),GI50 (SN12C renal),GI50 (SF-268 CNS),GI50 (K-562 leukemia),GI50 (OVCAR-3 ovarian),GI50 (SF-539 CNS)
Cc1ccccc1NC(=O)CC(=O)NNCC(=O)Nc1nnc(-c2ccccc2)s1,> 100 µM,> 100 µM,> 100 µM,> 100 µM,> 100 µM,> 100 µM,> 100 µM,> 100 µM,,,,,,,,,,,,
CCC12C=C(C(=O)OC)N3c4ccccc4C4CCN(CCC1)C2C43 (stereo not drawn),> 100 µM,> 100 µM,> 100 µM,> 100 µM,> 100 µM,> 100 µM,> 100 µM,> 100 µM,> 100 µM,,,,,,,,,,,
CCCCC(C(=O)C(=O)Nc1ccccc1CC)C(=O)C(C)C (stereo not drawn),> 100 µM,> 100 µM,> 100 µM,,> 100 µM,> 100 µM,> 100 µM,> 100 µM,> 100 µM,,,,,,,,,,,
C=CCN(CC=C)Cc1c[nH]c2ccccc12,,> 100 µM,,> 100 µM,32.1 µM,41.8 µM,32.5 µM,> 100 µM,> 100 µM,> 100 µM,3 µM,19.7 µM,36.3 µM,> 100 µM,14.6 µM,16 µM,11.5 µM,50.2 µM,,
COc1ccc(-c2c(Nc3ccccn3)nc3c(C4=CCCCC4)c(-c4ccccc4)[nH]n3c2=O)cc1,> 100 µM,24.9 µM,18.6 µM,> 100 µM,11.8 µM,> 100 µM,42.4 µM,,17.5 µM,3.44 µM,1.81 µM,15.5 µM,2 µM,4.55 µM,1.32 µM,2.7 µM,2.64 µM,,1.94 µM,2.81 µM
CCOC(=O)C#Cc1c(C(=O)OCC)nnn1[C@@H]1O[C@H](COC)[C@@H](OC)[C@H]1OC,3.25 µM,3.9 µM,,12.8 µM,10.7 µM,14.6 µM,35.6 µM,7.97 µM,> 100 µM,67.5 µM,2.85 µM,12.7 µM,1.95 µM,3.49 µM,3.33 µM,3.81 µM,16.3 µM,1.85 µM,1.72 µM,
ON1CCc2c([nH]c3ccccc23)C1c1ccc(Cl)cc1 (stereo not drawn),74.5 µM,> 100 µM,> 100 µM,> 100 µM,15.4 µM,81 µM,> 100 µM,> 100 µM,> 100 µM,,,,,,,,,,,
O=C(/C=C(\[O-])c1ccccc1)CCCCCCC(=O)/C=C(\[O-])c1ccccc1.O=C(/C=C(\[O-])c1ccccc1)CCCCCCC(=O)/C=C(\[O-])c1ccccc1.O=C(/C=C(\[O-])c1ccccc1)CCCCCCC(=O)/C=C(\[O-])c1ccccc1.[Y+3].[Y+3],> 50 µM,> 50 µM,> 50 µM,> 50 µM,> 50 µM,> 50 µM,> 50 µM,> 50 µM,> 50 µM,> 50 µM,,,40.3 µM,> 50 µM,14.9 µM,47.3 µM,41.5 µM,17.7 µM,> 50 µM,31.8 µM
CN(C)c1ccc(/C=C2\CCc3ccccc3C2=O)cc1Br,> 100 µM,> 100 µM,> 100 µM,> 100 µM,> 100 µM,> 100 µM,> 100 µM,> 100 µM,> 100 µM,,,,,,,,,,,
Nc1ccccc1C(=O)/C=C/c1ccccc1O,> 100 µM,,> 100 µM,> 100 µM,> 100 µM,> 100 µM,> 100 µM,93.4 µM,> 100 µM,,,,,,,,,,,
O=C(O)c1cn(C2CC2)c2cc(N3CCN(C(=O)N(c4ccccc4)c4nc(-c5ccccc5)cs4)CC3)c(F)cc2c1=O,,,,> 100 µM,> 100 µM,> 100 µM,> 100 µM,,,,0.358 µM,> 100 µM,,0.687 µM,0.351 µM,0.308 µM,0.389 µM,,,
COC(=O)C1CC(=O)O[C@H]1c1ccc(OC)c(OC)c1 (stereo partly drawn),> 100 µM,> 100 µM,> 100 µM,> 100 µM,> 100 µM,> 100 µM,> 100 µM,> 100 µM,> 100 µM,,,,,,,,,,,
CN(C)c1ccc(/C=c2/sc3nc(=O)c(-c4ccccc4NC(=O)C(F)(F)F)nn3c2=O)cc1,> 100 µM,> 100 µM,> 100 µM,> 100 µM,,> 100 µM,> 100 µM,> 100 µM,> 100 µM,,,,,,,,,,,
O/N=C1/C(=C/c2ccc(OCc3ccccc3)cc2)CCCC1C(NO)c1ccc(OCc2ccccc2)cc1 (stereo not drawn),88.8 µM,> 100 µM,> 100 µM,> 100 µM,> 100 µM,9.54 µM,,> 100 µM,> 100 µM,,,,,,,,,,,
CC(=O)NC(CCCNC(=O)OCc1ccccc1)C(=O)NCc1ccccc1 (stereo not drawn),> 100 µM,> 100 µM,> 100 µM,> 100 µM,> 100 µM,> 100 µM,> 100 µM,> 100 µM,> 100 µM,,,,,,,,,,,
O=[N+]([O-])c1ccc(/C=C/c2ccc(/C=C/c3ccc([N+](=O)[O-])cc3[N+](=O)[O-])cc2)c([N+](=O)[O-])c1,> 100 µM,> 100 µM,> 100 µM,> 100 µM,> 100 µM,,,> 100 µM,> 100 µM,,,,,,,,,,,
CCOC(OCC)(OCC)C(Br)CC (stereo not drawn),> 100 µM,> 100 µM,> 100 µM,> 100 µM,19 µM,> 100 µM,> 100 µM,> 100 µM,> 100 µM,,,,,,,,,,,
O=C(CC1(O)C(=O)Nc2c(Cl)ccc(Cl)c21)c1ccc(Cl)cc1 (stereo not drawn),47.4 µM,38.7 µM,50.6 µM,> 100 µM,70.6 µM,34.1 µM,94 µM,,90.9 µM,,,,,,,,,,,
N#Cc1c(CC(=O)O)cc(=O)n2c1[nH]c1ccccc12,> 100 µM,> 100 µM,> 100 µM,> 100 µM,> 100 µM,> 100 µM,> 100 µM,> 100 µM,> 100 µM,,,,,,,,,,,

# Source: PubChem BioAssay (NCI)
